Data published in patent publication US20240390377A1, “COMPOSITION FOR THE PREVENTION OR TREATMENT OF NEURODEGENERATIVE OR MOTOR NEURON DISEASES COMPRISING HALOFUGINONE AS AN ACTIVE INGREDIENT” (CURAMYS CO., LTD., priority 2022, published 2024).

How the values were obtained:
[1] = test system: G93A mutant SOD1 transgenic mice; assay: Motor neuron cell count (ChAT) in lumbar spinal cord of ALS animal model; type: in vivo, mouse
Description: (§1) As a control group, non-transgenic mice were injected intraperitoneally (i.p.) with vehicle (DMSO) in the same manner for the same period of time.
Specifically, mice were sacrificed at various time points (90 days and 120 days) according to the clinical state of the mice of Example 6. Each mouse was transdermally perfused with cold 4% paraformaldehyde (PFA) following cold PBS, and lumbar spinal cord was separated. Samples were post-fixed in 4% paraformaldehyde, treated in a cold 30% sucrose solution, then freeze-protected, and then cross-sectional sections 14 μm thick were successively obtained. […] Motor neurons were quantified from ChAT-stained sections using a computer-assisted microscope (Olympus BX53) at 4× magnification, along with cellSens software. […] The fields analyzed were all ChAT+ profiles located in the ventral half of the immunostaining section clearly marked on the gray matter of each hemisphere.
(§2) In addition, to investigate the motor neuron source of the spinal cord, motor neurons of the lumbar spinal cord were observed and counted in the same manner as described in Example 9 (FIG. 9d), and real-time qRT-PCR and Western blot analysis were performed in the same manner as described in Example 11 and Example 12 to quantitatively analyze the expression of ChAT mRNA (FIG. 9e) and ChAT protein (FIG. 9f). […]

[2] = test system: G93A mutant SOD1 transgenic mice; assay: Western blot analysis of lumbar spinal cord in ALS animal model; type: in vivo, mouse
Description: as §1
Specifically, the lumbar spinal cord or knee joint of the mouse of Example 6 was separated and immediately frozen at −80° C. Each lumbar spinal cord or knee joint was then homogenized and chemically treated to obtain cells. The chemically treated cells, the C2C12 cells of Example 1 or the fibroblasts of Example 5 were dissolved in a RIPA buffer (Thermo, MA, USA) with a protease inhibitor and a phosphatase inhibitor (Roche, IN, USA) and incubated on ice for 30 minutes. After centrifugation of the lysate at 13,000 rpm at 4° C. for 20 min, insoluble substances were removed. Protein concentrations were measured by BCA analysis (Pierce Biotechnology). Equal volumes of cell lysate were loaded onto SDS-PAGE gels for electrophoresis, and transferred onto nitrocellulose membranes (Amersham Protran 0.2 um NC, Amersham Pharmacia Biotech, Piscataway, NJ, USA). The membranes were then blocked with 5% (w/v) skimmilk in 1×TBST for 1 h at room temperature. After blocking, anti-RB-actin antibody (1:5000; Santa Cruz, cat #sc47778), anti-Smad2 antibody (1:1000; Cell Signaling, cat #5339), anti-p-Smad2 antibody (1:1000; Cell Signaling, cat #3108), anti-TGF-β1 antibody (1:1000; Santa Cruz, cat #sc130348), anti-α-SMA antibody (1:10000; abcam cat #ab7817), anti-MyoD antibody (1:1000; cat #sc377460), anti-collagen|antibody (1:1000; abcam cat #ab21286), anti-cleaved caspase-3 antibody (1:1000; Cell Signaling, cat #9661), anti-bax antibody (1:500; Santa Cruz, cat #sc493), anti-bcl2 antibody (1:1000; Novus Biologics, cat #NB100-56098), anti-ChAT antibody (1:1000; Millipore, cat #AB144) were treated and incubated overnight at 4° C. […] The membranes were then washed, briefly incubated with the SuperSignal West Pico Plus Chemical Substructure (Pierce Biotechnology) according to the manufacturer's procedure, and quantified with an image analyzer (Amersham Pharmacia Biotech, Piscataway, NJ, USA). β-actin was used as an internal control group. The concentration measurement of protein intensity was quantified using Image J (National Institutes of Health).
as §2

[3] = 120 days of age, change in DMSO TG vs DMSO Non-TG (FIG. 11b)

O=C(C[C@H]1NCCC[C@@H]1O)Cn1cnc2cc(Br)c(Cl)cc2c1=O (racemic) [halofuginone]
number of ChAT-positive motor neurons in lumbar spinal cord, compared with changes at 120 days ([1]; 90-day-old mice (FIG. 10b)): similar
number of ChAT-positive motor neurons in lumbar spinal cord ([1]; 120-day-old mice, compared to DMSO Non-TG group (FIG. 9d)): preserved similarly
ChAT expression (protein) in lumbar spinal cord ([2]; 120-day-old mice, compared to DMSO Non-TG group (FIG. 9f)): preserved similarly
decreased protein expression of bcl-2 in lumbar spinal cord [2, 3]: improved
increased protein expression of bax in lumbar spinal cord [2, 3]: improved
increased protein expression of cleaved caspase-3 in lumbar spinal cord [2, 3]: improved
